How the values were obtained:
NRP-1 = NRP-1 (Homo sapiens, UniProt O14786); assay: Direct binding of Leptin to NRP-1 by HTRF and confocal microscopy
Description: NRP-1 has been reported to bind directly VEGF increasing thus the binding affinity of VEGF to its receptor VEGFR2 […] and Sema3A enabling thus its binding to Plexin 3A. Our study led us to highlight a new mechanism of NRP-1 function. […] NRP-1 repression by siNRP-1 decreased the BRET signal and OBR oligomerization.

[1] = test system: OBR and STAT3 phosphorylation; assay: OBR and STAT3 phosphorylation in cytoplasmic and nuclear fractions; type: cell-based; conditions: Leptin stimulation
Description: Since both NRP-1/OBR complex formation and NRP-1 phosphorylation were abolished by CK2 inhibition, we supposed that OBR signaling pathway could be also affected by CK2 inhibition.

NRP-1/OBR complex = NRP-1/OBR complex detection by Duolink Proximity Ligation Assay in MDA-MB-231 cells; type: cell-based, human; conditions: Leptin stimulation compared to serum starved and unstimulated cells
Description: FIG. 2A-E. NRP-1/OBR complex is dependent of the activity of Protein-kinase CK2: NRP-1 and OBR are both a substrate of the holoenzyme CK2: In vitro phosphorylation of the recombinant full length NRP-1 (A) and the length OBR (B) indicate that the CK2β subunit is indispensable for the CK2 activity. C. Detection of the NRP-1 and CK2β subunit interaction: By using the PLA technology, the in vitro data showing the implication of CK2β subunit in the phosphorylation of NRP-1 by CK2 are in part confirmed in MDA-MB231 cells by the detection of CK2β interaction with NRP-1 as indicated by the duolink (white dot). […] E. inhibition of the NRP-1/OBR by the simultaneous CK2α and CK2α′ expression silencing using siRNA that confirms the CK2 implication In the NRP-1/OBR complex formation and nuclear localization.
To confirm a direct association of NRP-1 and Leptin in breast cancer cell migration, we investigated the NRP-1 and OBR interaction by using proximity ligation assay technology (Duolink) in MDA-MB-231 and in T47D-NRP-1. Since OBR is a member of the class I cytokine receptor family, we asked the question if the formation of the complex NRP-1/OBR can or not be modulated by Leptin. This question was investigated endogenously in MDA-MB-231 or by transient transfection of T47D either by NRP-1 or by NRP-1/OBR or OBR alone. After 24 h of transfection, cells were serum starved for 16 h then stimulated with Leptin (10 nM). After 3 h, the stimulation was stopped by removing the medium, cells was first washed then fixed and NRP-1/OBR complex formation was analyzed by Duolink in situ Proximity Ligation Assay (PLA) and by confocal microscopy detection. Co-localization was analyzed using JACoP (ImageJ; National Institutes of Health, Bethesda, Md.) software. Co-localization between molecules was indicated by a positive Pearson coefficient (r). First, the expression of NRP-1 in transfected T47D was confirmed by RT-PCR. NRP-1 forms a complex with endogenous OBR as it is shown by the Duolink detection as red dot in cells transfected with pcDNA3-NRP-1. The Duolink signal increased in the T47D co-transfected with NRP-1 and OBR. The Duolink signals in T47D transfected with either the empty vector pcDNA3 or with the OBR expressing vector were similar. The same results are observed in MDA-MB-231. […] By using subcellular protein fractionation kit, NRP-1 and OBR localization in cytoplasmic (C), membrane (M), in the total nuclear extract (N) or in soluble nuclear (SN) and chromatin bound fractions (CB) was analyzed by western blotting either in total lysate or after coimmunoprecipitation. The purity of fraction was assessed by the detection of specific proteins of each fraction such as Hsp90 for the C fraction, SP1 and HDAC2 for the SN and CB fractions and specifically the Calreticulin for endoplasmic reticulum (ER) in order to detect any contamination by the ER membrane fraction in the nuclear fractions. As suspected, OBR was coimmunoprecipitated with NRP-1 in the cytoplasmic (C) and in the nuclear fraction (N) of MDA-MB-231 but not in T47D. As well as Phosphorylated OBR (P-OBR), NRP-1 was detected in cytoplasmic fraction and in nuclear fractions SN and CB of 16 h serum starved MDA-MB-231 and stimulated with 10 nM of Leptin during 3 h at 37° C. The P-OBR and NRP-1 coimmunoprecipitated in the nuclear fractions, increasing with Leptin stimulation as observed by confocal microscopy.
As attempted, NRP-1/OBR complex was detected by confocal microscopy after by Duolink in situ Proximity Ligation Assay (PLA) in MDA-MB-231 stimulated with Leptin (10 nM). This detection was also observed in MDA-MB-231-shGFP but very less in MDA-MB-231-shNRP-1 confirming NRP-1 association with OBR.

[2] = test system: MDA-MB-231-shNRP-1 xenografts; assay: MDA-MB-231 xenografts in Nude mice; type: in vivo; conditions: Leptin treatment, KL1 staining
Description: First MBA-MB-231 and T47D breast cancer cells line were selected for their high and undetectable NRP-1 expression respectively and the expression of Leptin receptor (OBR). In order to investigate NRP-1 and Leptin association in breast cancer cell line migration, we proceeded to NRP-1 expression silencing in MDA-MB-231 using either siRNA or shRNA approaches or NRP-1 overexpression in T47D. […] In contrast Leptin induced MDA-MB-231 migration that was decreased in siNRP-1 conditions. The in vitro data were confirmed in vivo by MDA-MB-231 and T47D xenografts in Nude mice. Modulation of NRP-1 expression either by shRNA silencing in MDA-MB-231 or by overexpression in T47D induced an increase of proliferation and a decrease of lymph node infiltration by MDA-MB-231-shNRP-1 and a decrease of proliferation and an increase of lymph node infiltration by T47D-NRP-1-RFP in mice treated with Leptin.
This need to be more investigated and may be a new strategy for combined anti-Leptin and anti-VEGF therapies in breast cancer. […] In vitro and in vivo data are a direct evidence of NRP-1 and Leptin association in breast cancer cell line migration. This implication of Leptin and NRP-1 are in agreement of published data but with no association between Leptin and NRP-1.

direct binding to NRP-1 (NRP-1): unable to bind directly
Substance: Leptin: small non glycosylated protein, ligand of OBR
OBR and STAT3 phosphorylation [1]: increase | direct interaction between NRP-1 and OBR (Duolink PLA) (NRP-1/OBR complex): takes place under Leptin stimulation | lymph node infiltration by MDA-MB-231-shNRP-1 [2]: did not increase

— patent publication US11629192B2, “Methods and pharmaceutical compositions for the treatment of diseases mediated by the NRP-1/OBR complex signaling pathway” (INSERM (Institut National de la Sante et de la Recherche …, priority 2014, dated 2023)
